Experimental data as given in patent US9650616B2, “Methods for increasing grain yield” (University of Florida Research Foundation, Inc., priority 2014, dated 2017).
Positions count from the first letter of the chain named.

Legend:
[1] = target: T1, maize endosperm AGPase, wild type (Bt2/Sh2) (Zea mays, UniProt P55241+Q84PF5); assay: Apparent kinetic constants with 3-PGA, 37° C., wild type; type: biochemical; settings: read-out: ATP Km, Wt
T1 sequence (P55241 46-516): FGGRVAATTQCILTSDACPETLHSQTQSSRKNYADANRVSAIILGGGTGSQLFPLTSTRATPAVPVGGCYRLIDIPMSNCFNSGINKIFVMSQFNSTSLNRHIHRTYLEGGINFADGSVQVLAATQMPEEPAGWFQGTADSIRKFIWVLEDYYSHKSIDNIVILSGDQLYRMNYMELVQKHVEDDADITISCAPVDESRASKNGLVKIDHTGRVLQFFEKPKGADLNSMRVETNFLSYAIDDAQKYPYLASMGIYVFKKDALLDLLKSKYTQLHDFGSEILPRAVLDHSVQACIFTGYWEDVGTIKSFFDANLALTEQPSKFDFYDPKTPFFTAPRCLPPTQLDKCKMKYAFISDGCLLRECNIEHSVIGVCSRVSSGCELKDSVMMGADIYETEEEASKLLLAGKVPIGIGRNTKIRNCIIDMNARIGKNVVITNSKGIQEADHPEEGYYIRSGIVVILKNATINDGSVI
T1 sequence (Q84PF5 1-474): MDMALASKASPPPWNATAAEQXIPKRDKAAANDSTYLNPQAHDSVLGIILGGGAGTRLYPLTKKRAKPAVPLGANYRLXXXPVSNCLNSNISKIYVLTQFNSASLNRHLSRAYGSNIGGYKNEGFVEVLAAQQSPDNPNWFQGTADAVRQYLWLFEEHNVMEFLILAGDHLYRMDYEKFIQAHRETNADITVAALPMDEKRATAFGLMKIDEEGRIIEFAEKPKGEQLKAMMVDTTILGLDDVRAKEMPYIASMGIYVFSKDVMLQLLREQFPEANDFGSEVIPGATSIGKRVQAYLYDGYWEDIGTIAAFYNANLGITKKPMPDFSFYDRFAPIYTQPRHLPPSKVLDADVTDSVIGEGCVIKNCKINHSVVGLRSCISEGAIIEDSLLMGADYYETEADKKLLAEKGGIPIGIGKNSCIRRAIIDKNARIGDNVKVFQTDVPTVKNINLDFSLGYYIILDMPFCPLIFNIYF

[2] = target: T2, maize endosperm AGPase, large subunit variant RG (Q96R, D161G; numbering of SEQ ID NO: 20) (Zea mays, UniProt P55241+Q84PF5, D161G/Q96R); assay: Apparent kinetic constants with 3-PGA, 37° C., RG; type: biochemical; settings: read-out: ATP Km
T2 sequence (P55241 46-516 D161G/Q96R): T1 sequence (P55241 46-516) with Q51R, D116G
T2 sequence (Q84PF5 1-474): T1 sequence (Q84PF5 1-474)
Excerpt: The small and large subunit plasmids of maize endosperm AGPase (pMONcBt2 and pMONcSh2, respectively) (Giroux et al., 1996) were expressed in E. coli AC70R1-504 cells (Iglesias et al., 1993) as previously described (Boehlein et al., 2008).
An endpoint assay was used to determine the rate of the AGPase reaction by coupling the formation of PPi to a decrease in NADH concentration (Boehlein et al., 2008). […] The Michaelis constants (Km) were obtained by varying one substrate in the presence of saturating concentrations of the second substrate. The activation constants were obtained by varying the activator at fixed levels of both substrates. All reactions were performed at 37° C. and mixes were prewarmed before starting the reaction with enzyme. […] The absorbance at 340 nm was monitored after 30 min and the amount of PPi produced was determined from a standard curve using PPi in complete reaction mixtures lacking AGPase. Blank samples contained complete reaction mixtures without enzyme and the change in absorbance between the blank and the reaction was used to calculate the amount of PPi produced. […]
The apparent Michaelis constant and maximum velocity of each reaction was calculated from a V vs. S plots using nonlinear regression analysis and the following equation, v=VmaxS/(Km+S), where v is the measured velocity, Vmax is the maximum velocity, S is the substrate concentration. […]

Compound: Nc1ncnc2c1ncn2[C@@H]1O[C@H](COP(=O)(O)OP(=O)(O)OP(=O)(O)O)[C@@H](O)[C@H]1O [ATP]
- Km [1]: 69 µM
- Km [2]: 63 µM
